Tests used:
[1] = target: T1, PI 3-kinase alpha (Homo sapiens, UniProt P42336); assay: Kinase Glo Luminescent Kinase Assay (Kglo), assay A; assay type: biochemical; details: read-out: Assay A PI3Kα IC50
Target sequence in this assay (P42336 whole entry): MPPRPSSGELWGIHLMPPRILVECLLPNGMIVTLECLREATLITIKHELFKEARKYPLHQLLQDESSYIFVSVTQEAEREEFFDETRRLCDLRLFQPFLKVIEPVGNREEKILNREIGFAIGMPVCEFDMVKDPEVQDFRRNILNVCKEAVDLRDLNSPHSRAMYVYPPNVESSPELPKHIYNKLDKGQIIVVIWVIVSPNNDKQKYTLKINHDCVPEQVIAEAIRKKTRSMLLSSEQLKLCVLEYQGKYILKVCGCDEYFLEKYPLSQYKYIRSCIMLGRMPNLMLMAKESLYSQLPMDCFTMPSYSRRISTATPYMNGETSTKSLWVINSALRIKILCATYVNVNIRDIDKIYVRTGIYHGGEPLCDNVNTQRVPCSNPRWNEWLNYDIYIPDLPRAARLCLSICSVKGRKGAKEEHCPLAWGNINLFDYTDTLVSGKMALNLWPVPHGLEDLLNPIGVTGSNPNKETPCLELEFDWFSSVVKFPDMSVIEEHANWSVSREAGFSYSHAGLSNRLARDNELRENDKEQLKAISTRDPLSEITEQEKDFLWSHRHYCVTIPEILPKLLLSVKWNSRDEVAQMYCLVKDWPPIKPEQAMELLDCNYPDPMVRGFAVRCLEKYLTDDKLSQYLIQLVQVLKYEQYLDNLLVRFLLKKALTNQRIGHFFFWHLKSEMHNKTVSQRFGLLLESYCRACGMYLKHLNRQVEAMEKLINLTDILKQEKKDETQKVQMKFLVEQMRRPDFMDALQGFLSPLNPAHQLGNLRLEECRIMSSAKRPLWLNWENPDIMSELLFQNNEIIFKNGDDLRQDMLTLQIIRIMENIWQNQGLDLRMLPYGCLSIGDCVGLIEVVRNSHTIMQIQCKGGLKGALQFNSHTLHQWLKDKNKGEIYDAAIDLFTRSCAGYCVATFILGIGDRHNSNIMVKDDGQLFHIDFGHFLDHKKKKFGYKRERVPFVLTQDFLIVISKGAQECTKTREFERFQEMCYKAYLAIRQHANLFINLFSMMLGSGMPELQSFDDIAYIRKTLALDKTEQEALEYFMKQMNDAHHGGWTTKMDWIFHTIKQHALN

[2] = target: T2, PI 3-kinase beta (Homo sapiens, UniProt P42338); assay: Cellular assay I1, p-Akt (S473) in Rat-1 cells, Surefire format; assay type: cell-based; details: non-asterisked data: version I1 (Surefire format), Rat-1 cells; read-out: Assay I PI3Kβ IC50
[3] = target: T2, PI 3-kinase beta; assay: Kinase Glo Luminescent Kinase Assay (Kglo), assay B; assay type: biochemical; details: read-out: Assay B PI3Kβ IC50
[4] = target: T1, PI 3-kinase alpha; assay: Cellular assay H1, p-Akt (S473) in Rat-1 cells, Surefire format; assay type: cell-based; details: non-asterisked data: version H1 (Surefire format), Rat-1 cells; read-out: Assay H PI3Kα IC50
Target sequence in this assay (P42336 whole entry): as above
Target sequence in this assay (Q63787 whole entry partner): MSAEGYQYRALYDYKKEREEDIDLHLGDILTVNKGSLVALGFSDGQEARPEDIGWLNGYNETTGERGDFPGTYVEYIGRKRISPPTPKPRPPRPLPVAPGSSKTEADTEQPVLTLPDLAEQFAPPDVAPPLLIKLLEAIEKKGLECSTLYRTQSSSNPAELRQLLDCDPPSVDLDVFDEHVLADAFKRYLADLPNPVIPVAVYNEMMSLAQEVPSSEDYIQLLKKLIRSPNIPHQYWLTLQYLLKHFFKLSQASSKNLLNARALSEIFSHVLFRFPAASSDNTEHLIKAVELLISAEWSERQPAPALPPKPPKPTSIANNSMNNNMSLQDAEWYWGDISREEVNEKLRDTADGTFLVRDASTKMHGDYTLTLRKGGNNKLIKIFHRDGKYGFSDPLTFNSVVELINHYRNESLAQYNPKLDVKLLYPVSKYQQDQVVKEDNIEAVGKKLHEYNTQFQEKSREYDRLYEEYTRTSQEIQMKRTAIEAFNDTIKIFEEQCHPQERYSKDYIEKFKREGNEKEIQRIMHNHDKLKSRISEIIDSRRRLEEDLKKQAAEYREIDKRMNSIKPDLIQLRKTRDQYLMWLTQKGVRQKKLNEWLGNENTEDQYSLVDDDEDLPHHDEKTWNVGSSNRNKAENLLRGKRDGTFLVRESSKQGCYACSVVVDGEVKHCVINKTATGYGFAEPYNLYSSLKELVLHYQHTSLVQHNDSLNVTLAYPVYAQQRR

[5] = target: PI 4-kinase beta (Homo sapiens, UniProt Q9UBF8); assay: Kinase Glo Luminescent Kinase Assay (Kglo), assay D; assay type: biochemical; details: read-out: Assay D PI4Kβ IC50
[6] = target: T3, PI 3-kinase delta (Homo sapiens, UniProt O00329); assay: TR-FRET Adapta assay, assay F; details: read-out: Assay F PI3Kδ IC50
Target sequence in this assay (O00329 whole entry): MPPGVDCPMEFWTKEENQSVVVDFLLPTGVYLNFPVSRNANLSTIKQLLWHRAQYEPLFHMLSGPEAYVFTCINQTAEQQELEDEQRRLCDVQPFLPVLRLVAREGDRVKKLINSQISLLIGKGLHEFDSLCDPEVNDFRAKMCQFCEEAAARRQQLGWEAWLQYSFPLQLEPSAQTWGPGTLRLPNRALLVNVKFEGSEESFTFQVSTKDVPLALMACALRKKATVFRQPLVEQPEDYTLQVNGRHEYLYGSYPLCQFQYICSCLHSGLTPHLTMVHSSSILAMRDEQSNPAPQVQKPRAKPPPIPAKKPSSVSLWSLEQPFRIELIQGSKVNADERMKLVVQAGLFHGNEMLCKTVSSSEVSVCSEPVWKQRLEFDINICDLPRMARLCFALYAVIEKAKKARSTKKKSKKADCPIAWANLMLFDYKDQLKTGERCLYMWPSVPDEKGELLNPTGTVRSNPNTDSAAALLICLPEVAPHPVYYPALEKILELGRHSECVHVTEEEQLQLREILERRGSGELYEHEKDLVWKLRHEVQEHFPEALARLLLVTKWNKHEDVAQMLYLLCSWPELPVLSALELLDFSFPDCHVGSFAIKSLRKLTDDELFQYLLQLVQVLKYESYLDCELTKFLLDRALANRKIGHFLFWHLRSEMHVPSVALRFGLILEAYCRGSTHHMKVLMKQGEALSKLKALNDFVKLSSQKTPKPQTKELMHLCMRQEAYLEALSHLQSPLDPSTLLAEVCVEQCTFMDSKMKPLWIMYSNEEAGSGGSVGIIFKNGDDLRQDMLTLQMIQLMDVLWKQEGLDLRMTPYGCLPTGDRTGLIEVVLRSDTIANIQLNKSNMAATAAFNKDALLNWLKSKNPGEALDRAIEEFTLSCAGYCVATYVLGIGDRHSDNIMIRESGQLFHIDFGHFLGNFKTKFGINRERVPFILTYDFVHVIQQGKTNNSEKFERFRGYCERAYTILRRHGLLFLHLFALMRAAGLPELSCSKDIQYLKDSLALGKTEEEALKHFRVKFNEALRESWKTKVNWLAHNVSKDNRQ
Target sequence in this assay (P27986 461-568 partner): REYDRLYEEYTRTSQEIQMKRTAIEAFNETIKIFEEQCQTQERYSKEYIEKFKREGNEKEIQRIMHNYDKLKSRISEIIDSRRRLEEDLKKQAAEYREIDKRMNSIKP

[7] = Microsomal clearance assay (M); details: intrinsic clearance in rat liver microsomes
Description: The experiments were performed in 96-well glass plates at 37° C. on an automated Tecan EVO platform. Test compounds at a concentration of 10 mM in pure DMSO were diluted 1:1000 in water to 10 μM. […] Reactions were initiated by the addition of 150 μL of a cofactor solution containing 2 mM NADPH.

[8] = target: mTOR (Homo sapiens, UniProt P42345); assay: Lanthascreen kinase binding assay, assay G; details: read-out: Assay G mTOR IC50
Description: Lanthascreen™ Kinase Binding Assay for mTOR (G)
Binding of an inhibitor to the kinase competes for binding with the tracer, resulting in a loss of FRET.
50 nL of compound dilutions were dispensed onto white 384-well small volume polystyrene plate.

[9] = target: T3, PI 3-kinase delta; assay: Cellular assay J1, p-Akt (S473) in Rat-1 cells, Surefire format; assay type: cell-based; details: non-asterisked data: version J1 (Surefire format), Rat-1 cells; read-out: Assay J PI3Kδ IC50
Target sequence in this assay (O00329 whole entry): as the sequence (O00329 whole entry) above
Target sequence in this assay (Q63787 whole entry partner): as the sequence (Q63787 whole entry partner) above

[10] = target: Vps34 (Homo sapiens, UniProt Q8NEB9); assay: Kinase Glo Luminescent Kinase Assay (Kglo), assay C; assay type: biochemical; details: read-out: Assay C VPS34 IC50
Vps34, sequence (Q8NEB9 whole entry, species assumed): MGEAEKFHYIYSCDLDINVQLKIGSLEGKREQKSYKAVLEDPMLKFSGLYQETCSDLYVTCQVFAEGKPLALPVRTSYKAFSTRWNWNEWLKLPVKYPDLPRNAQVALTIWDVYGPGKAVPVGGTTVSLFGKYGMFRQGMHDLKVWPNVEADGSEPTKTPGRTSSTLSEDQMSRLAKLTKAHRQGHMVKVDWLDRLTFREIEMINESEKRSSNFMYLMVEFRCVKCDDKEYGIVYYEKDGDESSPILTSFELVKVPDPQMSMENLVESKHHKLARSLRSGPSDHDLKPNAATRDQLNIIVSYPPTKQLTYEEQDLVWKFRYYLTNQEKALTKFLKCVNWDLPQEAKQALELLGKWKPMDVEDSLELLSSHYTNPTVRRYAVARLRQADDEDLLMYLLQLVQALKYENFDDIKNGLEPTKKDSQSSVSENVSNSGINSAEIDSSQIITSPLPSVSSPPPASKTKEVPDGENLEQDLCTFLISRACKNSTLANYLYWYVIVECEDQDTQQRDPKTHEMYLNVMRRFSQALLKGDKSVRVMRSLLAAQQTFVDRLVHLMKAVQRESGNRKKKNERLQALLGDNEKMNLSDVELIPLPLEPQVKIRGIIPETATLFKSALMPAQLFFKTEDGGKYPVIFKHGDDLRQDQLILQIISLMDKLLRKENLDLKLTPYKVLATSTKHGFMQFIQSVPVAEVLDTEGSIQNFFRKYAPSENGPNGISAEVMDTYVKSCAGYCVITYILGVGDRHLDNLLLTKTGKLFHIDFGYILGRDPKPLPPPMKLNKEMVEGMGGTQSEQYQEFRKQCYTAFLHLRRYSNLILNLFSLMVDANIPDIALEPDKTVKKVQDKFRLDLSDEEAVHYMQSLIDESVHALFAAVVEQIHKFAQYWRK

[11] = target: T4, PI 3-kinase gamma (Homo sapiens, UniProt P48736); assay: TR-FRET Adapta assay, assay E; assay type: biochemical; details: read-out: Assay E PI3Kγ IC50
T4 sequence (P48736 whole entry): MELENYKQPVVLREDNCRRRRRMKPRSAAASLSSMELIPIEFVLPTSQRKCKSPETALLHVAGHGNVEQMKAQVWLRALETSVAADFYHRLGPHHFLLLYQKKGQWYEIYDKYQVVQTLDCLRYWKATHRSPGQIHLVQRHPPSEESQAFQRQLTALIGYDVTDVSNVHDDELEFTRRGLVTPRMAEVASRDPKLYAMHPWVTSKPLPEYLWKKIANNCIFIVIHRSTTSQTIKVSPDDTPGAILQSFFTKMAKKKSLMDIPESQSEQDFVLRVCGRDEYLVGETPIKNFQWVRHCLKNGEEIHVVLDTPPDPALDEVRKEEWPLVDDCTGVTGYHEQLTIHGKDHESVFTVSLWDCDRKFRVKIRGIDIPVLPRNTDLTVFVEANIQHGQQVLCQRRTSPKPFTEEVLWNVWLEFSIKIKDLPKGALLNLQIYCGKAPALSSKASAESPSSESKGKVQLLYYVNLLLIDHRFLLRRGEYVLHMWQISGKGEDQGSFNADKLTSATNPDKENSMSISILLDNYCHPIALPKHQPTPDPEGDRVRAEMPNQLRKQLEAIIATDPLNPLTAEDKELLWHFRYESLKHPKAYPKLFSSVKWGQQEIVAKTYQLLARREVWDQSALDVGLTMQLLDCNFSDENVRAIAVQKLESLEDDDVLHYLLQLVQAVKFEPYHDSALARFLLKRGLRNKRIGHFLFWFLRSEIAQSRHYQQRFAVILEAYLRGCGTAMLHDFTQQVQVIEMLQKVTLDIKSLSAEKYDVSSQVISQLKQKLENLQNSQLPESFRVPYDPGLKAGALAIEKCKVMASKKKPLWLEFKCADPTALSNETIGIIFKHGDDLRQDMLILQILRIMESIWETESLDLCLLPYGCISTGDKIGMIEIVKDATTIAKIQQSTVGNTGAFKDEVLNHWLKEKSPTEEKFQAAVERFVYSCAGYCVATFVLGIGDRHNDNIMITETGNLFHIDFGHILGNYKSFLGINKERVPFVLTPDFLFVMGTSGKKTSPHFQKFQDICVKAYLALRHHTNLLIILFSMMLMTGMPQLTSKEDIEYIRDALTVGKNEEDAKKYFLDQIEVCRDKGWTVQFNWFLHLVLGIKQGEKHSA

[12] = target: T4, PI 3-kinase gamma; assay: Cellular U937 AKT assay K1 (MSD); assay type: cell-based; details: U937 cells, K1 format; read-out: Assay K1 PI3Kγ IC50

| IC50 [1] | IC50 [2] | IC50 [3] | IC50 [4] | IC50 [5] | IC50 [6] | Assay M RLM CI(int) [7] | IC50 [8] | IC50 [9] | IC50 [10] | IC50 [11] | IC50 [12] | Compound |
| --- | --- | --- | --- | --- | --- | --- | --- | --- | --- | --- | --- | --- |
| 890 nM | – | 1200 nM | – | 7400 nM | 1100 nM | – | > 10000 nM | – | > 10000 nM | 38 nM | 392 nM | Cc1ccc(S(=O)(=O)NCC2CCCCO2)cc1-c1cnc(N)c(-n2cncn2)n1 (stereo not drawn) [Example 127.17] |
| 90 nM | 1730 nM | 520 nM | 480 nM | > 10000 nM | 320 nM | 254 µL/min/mg | > 10000 nM | 690 nM | > 10000 nM | 10 nM | – | COc1nc(-c2nc(-c3cc(S(=O)(=O)NCCC(C)(C)O)ccc3C)cnc2N)cs1 [Example 110, 3-(5-Amino-6-(2-methoxythiazol-4-yl)pyrazin-2-yl)-N-(3-hydroxy-3-methylbutyl)-4-methylbenzenesulfonamide] |
| 1800 nM | – | 4600 nM | – | > 10000 nM | 1200 nM | – | 6700 nM | – | > 10000 nM | 140 nM | 1880 nM | Cc1ccc(S(=O)(=O)NCC(C)(C)N2CCOCC2)cc1-c1cnc(N)c(-n2cncn2)n1 [Example 127.32] |
| 360 nM | – | 1900 nM | – | > 10000 nM | 1200 nM | – | 3000 nM | – | > 10000 nM | 98 nM | 320 nM | Cc1ccc(S(=O)(=O)N[C@H]2CCOC2)cc1-c1cnc(N)c(-n2cncn2)n1 [Example 127.21] |
| 1000 nM | > 10000 nM | 6000 nM | > 10000 nM | > 10000 nM | 1000 nM | 34 µL/min/mg | – | > 10000 nM | > 10000 nM | 270 nM | – | Cc1ccc(S(=O)(=O)NCC(C)(C)O)cc1-c1cnc(N)c(-c2cnn(CCN(C)C)c2)n1 [Example 142, 3-(5-Amino-6-(1-(2-(dimethylamino)ethyl)-1H-pyrazol-4-yl)pyrazin-2-yl)-N-(2-hydroxy-2-methylpropyl)-4-methylbenzenesulfonamide] |
| 360 nM | > 3000 nM | 1100 nM | 400 nM | 1200 nM | 260 nM | 123 µL/min/mg | 1360 nM | 860 nM | > 10000 nM | – | – | Cc1ccc(S(=O)(=O)NOC(C)C)cc1-c1cnc(N)c(-n2cncn2)n1 [Example 112.3, 3-(5-Amino-6-(1H-1,2,4-triazol-1-yl)pyrazin-2-yl)-N-isopropoxy-4-methylbenzenesulfonamide] |

More lines, now with the values behind:

| Compound | IC50 [1] | IC50 [2] | IC50 [3] | IC50 [4] | IC50 [5] | IC50 [6] | Assay M RLM CI(int) [7] | IC50 [8] | IC50 [9] | IC50 [10] | IC50 [11] | IC50 [12] |
| --- | --- | --- | --- | --- | --- | --- | --- | --- | --- | --- | --- | --- |
| Cc1ccc(S(=O)(=O)NCC(C)(C)O)cc1-c1cnc(N)c(-c2cn(C)nn2)n1 [Example 81, 3-(5-Amino-6-(1-methyl-1H-1,2,3-triazol-4-yl)pyrazin-2-yl)-N-(2-hydroxy-2-methylpropyl)-4-methylbenzenesulfonamide] | 2600 nM | > 10000 nM | 6300 nM | > 10000 nM | 9000 nM | 2500 nM | 29 µL/min/mg | > 10000 nM | 4040 nM | > 10000 nM | 77 nM | – |
| Cc1ccc(S(=O)(=O)NCCCF)cc1-c1cnc(N)c(-n2cncn2)n1 [Example 127.29] | 240 nM | – | 1800 nM | – | 3900 nM | 640 nM | – | > 10000 nM | – | > 10000 nM | 124 nM | 131 nM |
| CCc1noc(-c2nc(-c3cc(S(=O)(=O)NC4CNC4)ccc3C)cnc2N)n1 [Example 137, 3-(5-Amino-6-(3-ethyl-1,2,4-oxadiazol-5-yl)pyrazin-2-yl)-N-(azetidin-3-yl)-4-methylbenzenesulfonamide] | 1740 nM | > 10000 nM | > 9100 nM | > 10000 nM | > 9100 nM | 330 nM | 28 µL/min/mg | 950 nM | 8580 nM | > 9100 nM | 58 nM | – |
| Cc1ccc(S(=O)(=O)NCCF)cc1-c1cnc(N)c(-n2cncn2)n1 [Example 127.28] | 450 nM | – | 5100 nM | – | 8400 nM | 3500 nM | – | > 10000 nM | – | > 10000 nM | 160 nM | 290 nM |
| Cc1ccc(S(=O)(=O)NC[C@](C)(O)C(F)(F)F)cc1-c1cnc(N)c(-n2cncn2)n1 [Example 127.23] | 180 nM | – | 580 nM | – | 2900 nM | 360 nM | – | – | – | > 10000 nM | 23 nM | 82 nM |
| CCn1cc(-c2nc(-c3cc(S(=O)(=O)NCC(C)(C)O)ccc3C)cnc2N)nn1 [Example 83, 3-(5-Amino-6-(1-ethyl-1H-1,2,3-triazol-4-yl)pyrazin-2-yl)-N-(2-hydroxy-2-methylpropyl)-4-methylbenzenesulfonamide] | 1900 nM | 8750 nM | 5200 nM | > 10000 nM | 4300 nM | 700 nM | 45 µL/min/mg | > 10000 nM | 4050 nM | > 10000 nM | 85 nM | – |
| Cc1cc(-c2nc(-c3cc(S(=O)(=O)NCCCCCO)ccc3C)cnc2N)ccn1 [Example 129.3, 3-(5-amino-6-(2-methylpyridin-4-yl)pyrazin-2-yl)-N-(5-hydroxypentyl)-4-methylbenzenesulfonamide] | 490 nM | > 10000 nM | 7100 nM | 7600 nM | > 9100 nM | 340 nM | 139 µL/min/mg | > 9100 nM | 6840 nM | > 9100 nM | 16 nM | – |
| Cc1ccc(S(=O)(=O)NC[C@@](C)(O)C(F)(F)F)cc1-c1cnc(N)c(-n2cncn2)n1 [Example 127.22] | 270 nM | – | 970 nM | – | 8300 nM | 500 nM | – | 3900 nM | – | > 10000 nM | 40 nM | 156 nM |
| Cc1ccc(S(=O)(=O)NC[C@@H](C)O)cc1-c1cnc(N)c(-n2cncn2)n1 [Example 127.13] | 280 nM | – | 530 nM | – | 3800 nM | 1100 nM | – | 6100 nM | – | > 10000 nM | 26 nM | 210 nM |
| Cc1ccc(S(=O)(=O)NCCC(C)(C)O)cc1-c1cnc(N)c(-c2cnc(C3CC3)s2)n1 [Example 107, 3-(5-Amino-6-(2-cyclopropylthiazol-5-yl)pyrazin-2-yl)-N-(3-hydroxy-3-methylbutyl)-4-methylbenzenesulfonamide] | 80 nM | 1290 nM | 2090 nM | 790 nM | 940 nM | 60 nM | 119 µL/min/mg | 1390 nM | 960 nM | 3100 nM | 6 nM | – |
| Cc1ncc(S(=O)(=O)NCC(C)(C)O)cc1-c1cnc(N)c(-n2cncn2)n1 [Example 53, 5-(5-Amino-6-(1H-1,2,4-triazol-1-yl)pyrazin-2-yl)-N-(2-hydroxy-2-methylpropyl)-6-methylpyridine-3-sulfonamide] | 1700 nM | > 10000 nM | 7000 nM | > 10000 nM | > 10000 nM | 3700 nM | 29 µL/min/mg | – | > 10000 nM | > 10000 nM | 690 nM | – |
| Cc1ccc(S(=O)(=O)NCCC(C)(C)O)cc1-c1cnc(N)c(-c2cnn(CC(C)C)c2)n1 [Example 119.32] | 260 nM | 6040 nM | 3220 nM | 1680 nM | 2670 nM | 200 nM | 191 µL/min/mg | 6040 nM | 790 nM | > 9100 nM | 11 nM | – |
| Cc1cc(-c2nc(-c3cc(S(=O)(=O)NCC4CCCOC4)ccc3C)cnc2N)ccn1 (stereo not drawn) [Example 129.14, 3-(5-amino-6-(2-methylpyridin-4-yl)pyrazin-2-yl)-4-methyl-N-((tetrahydro-2H-pyran-3-yl)methyl)benzenesulfonamide] | 210 nM | 5150 nM | 4500 nM | 2960 nM | > 9100 nM | 480 nM | 347 µL/min/mg | 5700 nM | 2960 nM | > 9100 nM | 59 nM | – |
| Cc1ccc(S(=O)(=O)NCCC(C)(C)O)cc1-c1cnc(N)c(-c2cnn(CCC(C)C)c2)n1 [Example 119.26] | 250 nM | 1800 nM | 3900 nM | 700 nM | 1790 nM | 40 nM | 380 µL/min/mg | 5870 nM | 510 nM | > 9100 nM | 37 nM | – |

Source: patent publication US10004732B2 (Novartis AG, priority 2014, dated 2018)
